Experimental data published in article PMC6133092, “Synthesis of 2-alkylthio-N-(quinazolin-2-yl)benzenesulfonamide derivatives: anticancer activity, QSAR studies, and metabolic stability” (Monatshefte Fur Chemie, 2018).

Key:
UO-31 = assay: NCI-60 single dose screen, UO-31; type: cell-based; conditions: Homo sapiens, Renal cancer, single concentration 10^−5 M, read-out: IGP (inhibition growth percent) UO-31
Experimental: (§1) Aside from above, compounds 9–14 and 17–24 were also submitted to National Cancer Institute and evaluated for the cytotoxic effects toward 60 cell lines at a single dose of 10 μM (Table 2). […] As it was summarized in Table 2, leukemia RPMI-8226 and NSCLC A549/ATCC were most sensitive to compounds 18, 22, and 24. These derivatives in 10 μM concentration inhibited the growth of approximately 50% cells belonging to the above mention cell lines.
(§2) Cytotoxicity evaluation of compounds 9–14 and 17–24 was performed at the National Cancer Institute according to NCI-60 DTP human tumor cell line screen procedure.

PC-3 = assay: NCI-60 single dose screen, PC-3; type: cell-based; conditions: Homo sapiens, Prostate cancer, single concentration 10^−5 M, read-out: IGP (inhibition growth percent) PC-3
Experimental: as §1, §2

MCF-7 = assay: NCI-60 single dose screen, MCF-7; type: cell-based; conditions: Homo sapiens, MCF7; Breast cancer; single concentration 10^−5 M; read-out: IGP (inhibition growth percent) MCF-7
Experimental: as §1, §2

SR = assay: NCI-60 single dose screen, SR; type: cell-based; conditions: Homo sapiens, Leukemia, single concentration 10^−5 M, read-out: IGP (inhibition growth percent) SR
Experimental: as §1, §2

NCI-H522 = assay: NCI-60 single dose screen, NCI-H522; type: cell-based; conditions: Homo sapiens, NSCLC, single concentration 10^−5 M, read-out: IGP (inhibition growth percent) NCI-H522
Experimental: as §1, §2

A549/ATCC = assay: NCI-60 single dose screen, A549/ATCC; type: cell-based; conditions: Homo sapiens, A549, NSCLC; single concentration 10^−5 M; read-out: IGP (inhibition growth percent) A549/ATCC
Experimental: as §1, §2

EKVX = assay: NCI-60 single dose screen, EKVX; type: cell-based; conditions: Homo sapiens, NSCLC, single concentration 10^−5 M, read-out: IGP (inhibition growth percent) EKVX
Experimental: as §1, §2

MOLT-4 = assay: NCI-60 single dose screen, MOLT-4; type: cell-based; conditions: Homo sapiens, Leukemia, single concentration 10^−5 M, read-out: IGP (inhibition growth percent) MOLT-4
Experimental: as §1, §2

MCF-7 (breast cancer) = assay: MTT cell viability assay, MCF-7; type: cell-based, human; conditions: Homo sapiens, MCF7, 72 h, mean ± SD
Experimental: All of the newly synthesized compounds 9–24 were evaluated for their effects on cell viability in three human cancer cell lines: HCT-116 (colon cancer), HeLa (cervical cancer), and MCF-7 (breast cancer). Cisplatin was used as reference drug. […] Considering the activity of derivatives 9–12, 15, 17, 18, and 21–24, it can be noticed that phenyl group as R^3 bring an increase of cytotoxicity in comparison with methyl in place of R^3. However, this impact seems to be the most important for compounds with the bulky group in R^1 and generally, it is less for a set of derivatives with methyl group substituted in R^1 (9–12).
(§3) All chemicals, if not stated otherwise, were obtained from Sigma-Aldrich (St. Louis, MO, USA). The MCF-7 and HeLa cell lines were purchased from Cell Lines Services (Eppelheim, Germany), the HCT-116 cell line was purchased from ATCC (ATCC-No: CCL-247). Cells were cultured in Dulbecco’s modified Eagle’s medium (DMEM) supplemented with 10% fetal bovine serum, 2 mM glutamine, 100 units/cm^3 penicillin, and 100 μg/cm^3 streptomycin. Cultures were maintained in a humidified atmosphere with 5% CO2 at 37 °C in an incubator (Heraceus, HeraCell).
(§4) Cell viability was determined using the MTT (3-(4,5-dimethylthiazol-2-yl)-2,5-diphenyltetrazolium bromide) assay. Cells were seeded in 96-well plates at a density of 5 × 10^3 cells/well and treated for 72 h with the examined compounds in the concentration range 1–100 μM (1, 10, 25, 50, and 100 μM). Following treatment, MTT (0.5 mg/cm^3) was added to the medium and cells were further incubated for 2 h at 37 °C. Cells were lysed with DMSO and the absorbance of the formazan solution was measured at 550 nm with a plate reader (Victor, 1420 multilabel counter). […] The experiment was performed in triplicate. Values are expressed as the mean ± SD of at least three independent experiments.

HeLa (cervical cancer) = assay: MTT cell viability assay, HeLa; type: cell-based; conditions: Homo sapiens
Experimental: as §3, §4

[1] = Metabolic stability in human liver microsomes with NADPH; type: in vitro ADME; conditions: pooled human liver microsomes, pH 7.4, human liver microsomes 0.5 mg/cm^3, NADPH 1 mM, 10 μM compound, 37 °C, read-out: in vitro metabolic half-life t1/2
Experimental: Selected derivatives were submitted to metabolic stability study to assess their ability to remain unchanged in the presence of human metabolic enzymes. Human liver microsomes were used as they are a rich source of all common CYP isoenzymes. In vitro incubations were performed in the presence of NADPH as a cofactor and the disappearance of a derivative was followed using LC–MS technique. The in vitro metabolic half-life values are gathered in Fig. 3.
Stock solutions of studied compounds were prepared at concentration of 10 mM in DMSO. […] Incubation mixture contained 10 μM of a studied derivative, 1 mM of NADPH (Sigma-Aldrich) and 0.5 mg/cm^3 of pooled human liver microsomes (HLM, Sigma-Aldrich) in potassium phosphate buffer (0.1 M, pH 7.4). Incubation was carried out in thermostat at 37 °C and started by addition of studied compound. 50 mm^3 samples were taken at starting point and after 5, 15, 30, 45, and 60 min. Enzymatic reaction was terminated by the addition of the equal volume of ice-cold acetonitrile. Incubations were performed in triplicates, the average t1/2 and standard deviation was calculated. Control incubations were performed without NADPH to assess chemical instability. After collection, samples were immediately centrifuged (10 min, 10,000 rpm) and resulted supernatant was directly analyzed or kept in − 80 °C until LC–MS analysis. Natural logarithm of a compound over IS peak area ratio was plotted versus incubation time. Metabolic half-time (t1/2) was calculated from the slope of the linear regression.
LC–MS analysis was performed on an Agilent 1260 system coupled to SingleQuad 6120 mass spectrometer (Agilent Technologies, Santa Clara, CA, USA). Poroshell EC-C18 (2.1 mm × 150 mm, 2.7 μm, Agilent Technologies, Santa Clara, CA, USA) was used in reversed-phase mode with gradient elution starting with 5% of phase A (10 mM ammonium formate in water) and 95% of phase B (10 mM ammonium formate in acetonitrile–water mixture, 95:5 v/v). […] Total analysis time was 15 min at 40 °C, flow rate was 1 cm^3/min and the injection volume was 5 mm^3. The mass spectrometer was equipped with electrospray ion source and operated in positive ionization. Mass analyzer was set individually to each compound to detect [M+H]^+ protonated molecule. MSD parameters of the ESI source were as follows: nebulizer pressure 35 psig (N2), drying gas […] (N2), drying gas temperature 300 °C, capillary voltage 3 kV, fragmentor voltage 150 V.

UACC-62 = assay: NCI-60 single dose screen, UACC-62; type: cell-based; conditions: Homo sapiens, Melanoma, single concentration 10^−5 M, read-out: IGP (inhibition growth percent) UACC-62
Experimental: as §1, §2

HCT-116 (colon cancer) = assay: MTT cell viability assay, HCT-116; type: cell-based; conditions: Homo sapiens, 72 h, mean ± SD
Experimental: as §3, §4

HCT-116 = assay: NCI-60 single dose screen, HCT-116; type: cell-based; conditions: Homo sapiens, Colon cancer, single concentration 10^−5 M, read-out: IGP (inhibition growth percent) HCT-116
Experimental: as §1, §2

RPMI-8226 = assay: NCI-60 single dose screen, RPMI-8226; type: cell-based; conditions: Homo sapiens, RPMI-8226, Leukemia; single concentration 10^−5 M; read-out: IGP (inhibition growth percent) RPMI-8226
Experimental: as §1, §2

HOP-92 = assay: NCI-60 single dose screen, HOP-92; type: cell-based; conditions: Homo sapiens, NSCLC, single concentration 10^−5 M, read-out: IGP (inhibition growth percent) HOP-92
Experimental: as §1, §2

[2] = Table 4, repeats Table 1 values without SD and unit

SMILES	inhibition at 10 µM (UO-31) [%]	inhibition at 10 µM (PC-3) [%]	inhibition at 10 µM (MCF-7) [%]	inhibition at 10 µM (SR) [%]	inhibition at 10 µM (NCI-H522) [%]	inhibition at 10 µM (A549/ATCC) [%]	inhibition at 10 µM (EKVX) [%]	inhibition at 10 µM (MOLT-4) [%]	IC50 (MCF-7 (breast cancer)) [µM]	IC50 (HeLa (cervical cancer); MTT, 72 h, mean ± SD) [µM]	IC50 (HeLa (cervical cancer); [2]) [µM]	half-life at 10 μM [1] [min]	inhibition at 10 µM (UACC-62) [%]	IC50 (HCT-116 (colon cancer)) [µM]	inhibition at 10 µM (HCT-116) [%]	inhibition at 10 µM (RPMI-8226) [%]	melting point	inhibition at 10 µM (HOP-92) [%]
Cc1cc(S(=O)(=O)Nc2nc(C)c3ccccc3n2)c(SCc2cc3c(cc2Cl)OCO3)cc1Cl [Compound 11, 4-Chloro-2-(6-chlorobenzo[1,3]dioxol-5-ylmethylthio)-5-methyl-N-(4-methylquinazolin-2-yl)benzenesulfonamide]	15	23	4	3	19	34	17	20	57 ± 2	58 ± 2	58	56.8	23	46 ± 1	30	32	–	–
Cc1cc(S(=O)(=O)Nc2nc(C)c3ccccc3n2)c(SCC(N)=O)cc1Cl [Compound 13, 2-Carbamoylmethylthio-4-chloro-5-methyl-N-(4-methylquinazolin-2-yl)benzenesulfonamide]	8	–	6	12	4	–	5	11	440 ± 4	320 ± 22	–	75.4	–	260 ± 5	–	–	232 to 235 °C (dec.)	–
CCOC(=O)CSc1cc(Cl)c(C)cc1S(=O)(=O)Nc1nc(C)c2ccccc2n1 [Compound 15, 4-Chloro-2-(2-ethoxy-2-oxoethylthio)-5-methyl-N-(4-methylquinazolin-2-yl)benzenesulfonamide]	–	–	–	–	–	–	–	–	160 ± 6	230 ± 7	–	–	–	110 ± 2	–	–	192 to 194 °C	–
CCOC(=O)CSc1cc(Cl)c(C)cc1S(=O)(=O)Nc1nc(-c2ccccc2)c2ccccc2n1 [Compound 16, 4-Chloro-2-(2-ethoxy-2-oxoethylthio)-5-methyl-N-(4-phenyl-quinazolin-2-yl)benzenesulfonamide]	–	–	–	–	–	–	–	–	105 ± 3	74 ± 4	74	–	–	62 ± 1	–	–	162 to 165 °C	–
Cc1nc(NS(=O)(=O)c2cc(C(=O)Nc3ccccc3)c(Cl)cc2SCc2ccccc2)nc2ccccc12 [Compound 17, 2-Benzylthio-4-chloro-5-phenylcarbamoyl-N-(4-methylquinazolin-2-yl)benzenesulfonamide]	24	3	–	12	12	11	18	9	175 ± 10	72 ± 1	72	16	14	84 ± 3	5	22	–	20
Cc1nc(NS(=O)(=O)c2cc(C(=O)Nc3ccc(Cl)cc3)c(Cl)cc2SCc2ccccc2)nc2ccccc12 [Compound 21, 2-Benzylthio-4-chloro-5-(4-chlorophenylcarbamoyl)-N-(4-methylquinazolin-2-yl)benzenesulfonamide]	22	8	5	3	20	8	8	7	115 ± 2	71 ± 2	71	37.7	6	54 ± 1	4	12	–	8
